Test results taken from PubChem BioAssay AID256 (DTP/NCI, 2004).
“And” between values parts separate entries of the source, which are not always exact repeats. Identical values can stand only once. Toxic doses and inconclusive results are not listed.

System: CD2F1 mice, L1210 leukemia ip, survival T/C
Test: NCI In Vivo Anticancer Drug Screen. Data for tumor model L1210 Leukemia (intraperitoneal) in CD2F1 (CDF1) mice
Conditions: higher = longer survival
Method in brief: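 Vehicle-treated tumor-bearing mice served as controls (C) for compound-treated mice (T). Reported figure is T divided by C.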

[1] = endpoint: mean survival time, dose: 100.0 mg/kg/injection, schedule: Q04DX003 (ip), vehicle: saline with Tween-80
[2] = endpoint: mean survival time, dose: 100.0 mg/kg/injection, schedule: Q04DX002 (ip), vehicle: saline with Tween-80
[3] = endpoint: mean survival time, dose: 200.0 mg/kg/injection, schedule: Q04DX002 (ip), vehicle: saline with Tween-80
[4] = endpoint: mean survival time, dose: 400.0 mg/kg/injection, schedule: Q04DX002 (ip), vehicle: saline with Tween-80
[5] = endpoint: mean survival time, dose: 200.0 mg/kg/injection, schedule: Q04DX003 (ip), vehicle: saline with Tween-80
[6] = endpoint: mean survival time, dose: 400.0 mg/kg/injection, schedule: Q04DX003 (ip), vehicle: saline with Tween-80

CC(C)(C[NH-])C[NH-].[Cl][Pt+2]([Cl])([Cl])[Cl]
T/C (endpoint: median survival time, dose: 0.2 mg/kg/injection, schedule: Q04DX003 (ip), vehicle: water): 116 % of control and 111 % of control | T/C (endpoint: median survival time, dose: 0.4 mg/kg/injection, schedule: Q04DX003 (ip), vehicle: water): 116 % of control and 124 % of control | T/C (endpoint: median survival time, dose: 1.6 mg/kg/injection, schedule: Q04DX003 (ip), vehicle: water): 151 % of control and 186 % of control and 228 % of control | T/C (endpoint: median survival time, dose: 3.12 mg/kg/injection, schedule: Q04DX003 (ip), vehicle: distilled water + Tween-80): 123 % of control

CCc1cccc([N+](=O)[O-])c1CC
T/C (endpoint: mean survival time, dose: 25.0 mg/kg/injection, schedule: Q04DX003 (ip), vehicle: saline with Tween-80): 97 % of control | T/C (endpoint: mean survival time, dose: 50.0 mg/kg/injection, schedule: Q04DX003 (ip), vehicle: saline with Tween-80): 95 % of control | T/C [1]: 100 % of control and 105 % of control

CNC(=O)OCc1c(COC(=O)NC)c(-c2ccc(Cl)c(Cl)c2)n2c1Cc1ccccc1C2
T/C (endpoint: median survival time, dose: 12.5 mg/kg/injection, schedule: Q01DX009 (ip), vehicle: distilled water + Tween-80): 122 % of control | T/C (endpoint: median survival time, dose: 25.0 mg/kg/injection, schedule: Q01DX009 (ip), vehicle: distilled water + Tween-80): 122 % of control | T/C (endpoint: median survival time, dose: 50.0 mg/kg/injection, schedule: Q01DX009 (ip), vehicle: distilled water + Tween-80): 157 % of control | T/C (endpoint: median survival time, dose: 100.0 mg/kg/injection, schedule: Q01DX009 (ip), vehicle: distilled water + Tween-80): 164 % of control and 173 % of control | T/C (endpoint: median survival time, dose: 200.0 mg/kg/injection, schedule: Q01DX009 (ip), vehicle: distilled water + Tween-80): 124 % of control

CCCCN=C(C(=NCCCC)N(CCCC)CCCC)N(CCCC)CCCC
T/C [2]: 101 % of control | T/C [3]: 89 % of control | T/C [4]: 98 % of control

O=C1CC(=O)NC(=O)C1
T/C (endpoint: mean survival time, dose: 12.5 mg/kg/injection, schedule: Q01DX009 (ip), vehicle: water): 95 % of control | T/C (endpoint: mean survival time, dose: 25.0 mg/kg/injection, schedule: Q01DX009 (ip), vehicle: water): 92 % of control | T/C (endpoint: mean survival time, dose: 50.0 mg/kg/injection, schedule: Q01DX009 (ip), vehicle: water): 94 % of control | T/C (endpoint: mean survival time, dose: 100.0 mg/kg/injection, schedule: Q01DX009 (ip), vehicle: water): 92 % of control | T/C (endpoint: mean survival time, dose: 200.0 mg/kg/injection, schedule: Q01DX009 (ip), vehicle: water): 94 % of control

S=c1nccc[nH]1.[Pd]
T/C (endpoint: mean survival time, dose: 3.13 mg/kg/injection, schedule: Q04DX003 (ip), vehicle: distilled water + Tween-80): 97 % of control | T/C (endpoint: mean survival time, dose: 6.25 mg/kg/injection, schedule: Q04DX003 (ip), vehicle: distilled water + Tween-80): 94 % of control | T/C (endpoint: mean survival time, dose: 12.5 mg/kg/injection, schedule: Q04DX003 (ip), vehicle: distilled water + Tween-80): 89 % of control | T/C (endpoint: mean survival time, dose: 25.0 mg/kg/injection, schedule: Q04DX003 (ip), vehicle: distilled water + Tween-80): 89 % of control | T/C (endpoint: mean survival time, dose: 50.0 mg/kg/injection, schedule: Q04DX003 (ip), vehicle: distilled water + Tween-80): 89 % of control

O=C1CCc2cccc3cccc(c23)N1
T/C [1]: 98 % of control | T/C [5]: 98 % of control | T/C [6]: 90 % of control

ClCc1ccc(Cl)cc1
T/C (endpoint: mean survival time, dose: 25.0 mg/kg/injection, schedule: Q01DX001 (ip), vehicle: saline with Tween-80): 102 % of control | T/C (endpoint: mean survival time, dose: 50.0 mg/kg/injection, schedule: Q01DX001 (ip), vehicle: saline with Tween-80): 106 % of control | T/C (endpoint: mean survival time, dose: 100.0 mg/kg/injection, schedule: Q01DX001 (ip), vehicle: saline with Tween-80): 92 % of control and 102 % of control

O=C(OCCOC(=O)N1CCOCC1)N1CCOCC1
T/C [2]: 101 % of control | T/C [3]: 97 % of control | T/C [4]: 101 % of control

CC(C)=NC(=O)NO.[Cl][Co][Cl]
T/C (endpoint: mean survival time, dose: 50.0 mg/kg/injection, schedule: Q04DX003 (ip), vehicle: saline): 109 % of control | T/C (endpoint: mean survival time, dose: 75.0 mg/kg/injection, schedule: Q04DX003 (ip), vehicle: saline): 113 % of control | T/C (endpoint: mean survival time, dose: 100.0 mg/kg/injection, schedule: Q04DX003 (ip), vehicle: saline): 100 % of control | T/C (endpoint: mean survival time, dose: 125.0 mg/kg/injection, schedule: Q04DX003 (ip), vehicle: saline): 113 % of control

CC(=O)NCc1cc(CNC(C)=O)c(C)cc1C
T/C (endpoint: mean survival time, dose: 100.0 mg/kg/injection, schedule: Q01DX009 (ip), vehicle: saline with Tween-80): 98 % of control | T/C [1]: 95 % of control | T/C (endpoint: mean survival time, dose: 200.0 mg/kg/injection, schedule: Q01DX009 (ip), vehicle: saline with Tween-80): 88 % of control | T/C [5]: 91 % of control | T/C (endpoint: mean survival time, dose: 400.0 mg/kg/injection, schedule: Q01DX009 (ip), vehicle: saline with Tween-80): 95 % of control | T/C [6]: 87 % of control
